Laboratory results taken from paper PMC7156458, “Synthetic biology based construction of biological activity-related library of fungal decalin-containing diterpenoid pyrones” (Nature Communications, 2020).
Values joined by “and” are separate entries in the source; they are usually repeats but may differ in a detail not shown here. Identical values can stand only once. Like-named read-outs stand apart in the source and are kept apart here.

Key:
[1] = tested on: MCF-7 cells; test: mammosphere formation assay; assay type: cell-based, human; conditions: MCF-7, 5 μM
Method: We also evaluated antiproliferative activity against cancer stem cells (CSCs), which are a small sub-population in tumour bulk identified in most cancer cells and clinical samples[52]. CSCs have been a major problem in cancer therapy because they are responsible for recurrence, metastasis and drug resistance to chemotherapeutic agents that affect proliferative cells[53]–[56]. Anti-CSC activity was evaluated by the inhibition of sphere-forming ability, a well-studied method to enrich the CSC-like population, and selective cytotoxicity against one of the most reliable CSC markers, aldehyde dehydrogenase (ALDH)-positive cells. […] Low-toxicity 16 was also added as a negative control. […] We next evaluated the three DDPs that inhibited mammosphere formations against ALDH-positive cells, a functional marker for breast CSCs. MCF-7 cells were treated with 1 μM of 11, 12 or 22, and the ALDH-positive cell population was analysed by using a fluorescence activated cell sorter (Supplementary Fig. 46b). […] Thus, for the first time, we successfully found DDPs with potent antiproliferative effects on the CSC-like population in MCF-7 cells, which may lead to new anti-CSC drugs.
Fig. 5 DDPs show anti-CSC activity in breast cancer cell line MCF-7. a Effect of DDPs on mammosphere formation. After the cells were cultured in the presence of 5 μM DDPs for 7 days, the number of mammospheres was microscopically counted and the percentage of mammosphere-forming cells was determined as mammosphere-forming efficiency (MFE; %). Data represent mean ± s.d. from three independent replicate experiments. P-values were calculated by a two-sided unpaired Student’s t-test, compared with control. b Micrographs show representative images of mammosphere formation from three independent replicate experiments using compound 11, 12, 16, 22. The scale bar, […]. c Effect of DDPs (1 μM, 3 days) on ALDH-positive cells in MCF-7 cells. Data represent mean ± s.d. from three independent replicate experiments. P-values were calculated by a two-sided unpaired Student’s t-test, compared with control. d Dose-dependent effect of compound 12 on ALDH-positive cells in MCF-7 cells. Data represent mean ± s.d. from three independent replicate experiments. P-values were calculated by a two-sided unpaired Student’s t-test. Source data underlying Fig. 5a, c, d are provided in a Source Data file.

[2] = cytotoxicity in Drosophila DL1 cells; assay type: cell-based; conditions: Drosophila, DL1 cells
Method: (§1) We screened the DDPs on the Drosophila assay system for cytotoxicity, inhibitory activity of innate immune signalling and insecticidal activity. The cytotoxicity of the DDPs was evaluated using two cell lines, embryonic macrophage-derived DL1 cells[58]–[60] and larval blood cell-derived l(2)mbn cells, and their IC50 values are listed in Supplementary Table 23.

[3] = tested on: DL1 cells; test: cytotoxicity in Drosophila DL1 cells; assay type: cell-based; conditions: for % viability, viability 2: replicate 2, relative to DMSO 1%; for % viability, viability 1: replicate 1, relative to DMSO 1%
Method: as §1

[4] = tested on: human immunodeficiency virus-1 (HIV-1); test: anti-HIV MAGI assay; assay type: cell-based; conditions: Human immunodeficiency virus 1, MAGI, anti-HIV
From the text: (§2) We examined the inhibitory activities of DDPs against various species of bacteria (both gram-negative and gram-positive bacteria), fungi and viruses. […] In contrast, preliminary screening of the DDPs for anti-viral agents with hepatitis B virus (HBV), measles virus (MV), Epstein-Barr virus (EBV), herpes simplex virus (HSV) and human immunodeficiency virus-1 (HIV-1) indicated their selective inhibition of HIV.

[5] = tested on: hepatitis B virus (HBV), measles virus (MV), Epstein-Barr virus (EBV), herpes simplex virus (HSV); test: preliminary anti-viral screening (other viruses); assay type: cell-based
From the text: as §2

[6] = tested on: HCC2998; test: cells; parameters: species or system JFCR39 human cancer cell lines; JFCR39 panel growth inhibition, sulforhodamine B total protein after 48 h; conditions: Homo sapiens, HCC 2998, 48 h
Method: (§3) Supplementary Note 24. Antiproliferative effects across the panel of JFCR39 cancer cell lines A panel of 39 human cancer cell lines, termed JFCR39, were previously described13-16. Cells were grown in RPMI-1640 (FUJIFILM Wako Pure Chemical Corporation, Tokyo, Japan) supplemented with 1 µg mL-1 kanamycin and 5% (v/v) fetal bovine serum (Nichirei Biosciences Inc, Tokyo, Japan) and incubated at 37°C in a humidified atmosphere supplemented with 5% CO2. Drug efficacy was assessed as changes in total cellular protein after 48 hours of drug treatment using a sulforhodamine B assay. Assays were done in duplicate and the GI50 was calculated as described previously13,16. The antitumor profile across the JFCR39 panel, or fingerprints were then compared to reference database containing ~2000 compounds by COMPARE algorithm16,17. Initially, we evaluated new DDP analogues for their antiproliferative activities across the panel of 39 human cancer cell lines, JFCR39[50],[51].

[7] = tested on: HT-29; test: cells; parameters: species or system JFCR39 human cancer cell lines; JFCR39 panel growth inhibition, sulforhodamine B total protein after 48 h; conditions: Homo sapiens, HT-29, 48 h
Method: as §3

[8] = tested on: MKN-A; test: cells; parameters: species or system JFCR39 human cancer cell lines; JFCR39 panel growth inhibition, sulforhodamine B total protein after 48 h; conditions: 48 h
Method: as §3

[9] = tested on: MKN-B; test: cells; parameters: species or system JFCR39 human cancer cell lines; JFCR39 panel growth inhibition, sulforhodamine B total protein after 48 h; conditions: 48 h
Method: as §3

[10] = tested on: SF-539; test: cells; parameters: species or system JFCR39 human cancer cell lines; JFCR39 panel growth inhibition, sulforhodamine B total protein after 48 h; conditions: Homo sapiens, SF-539, 48 h
Method: as §3

[11] = replicate 1, relative to DMSO 1%, read-out: % viability, viability 1
[12] = replicate 2, relative to DMSO 1%, read-out: % viability, viability 2
[13] = DL1 cells, 0.04 µM, replicate 1
[14] = DL1 cells, 0.04 µM, replicate 2
[15] = DL1 cells (embryonic macrophage-derived), replicate 1, relative to DMSO 1%, read-out: % viability, viability 1
[16] = DL1 cells (embryonic macrophage-derived), replicate 2, relative to DMSO 1%, read-out: % viability, viability 2

C=C1CCC2C(C)(CCC=C(C)C)C(O)CCC2(C)C1Cc1c(OC)oc(C)c(C)c1=O (stereo not drawn) [Compound 11]
effect on sphere formation [1]: clearly inhibited sphere formation
MFE (%) ave ([1]; 7 days, mean of 3, control 0.87): 0.46%
MFE (control = 1) ave ([1]; 7 days, relative to control = 1): 0.53
MFE (%) ([1]; 7 days, single replicates): 0.47% and 0.44%
viability at 0.04 µM [2, 11]: 216%
viability at 0.04 µM [2, 12]: 202%
viability at 0.2 µM [2, 11]: 191%
viability at 10 µM [2, 11]: 20.5%
viability at 10 µM [2, 12]: 22.2%
viability at 20 µM [2, 11]: 22.4%
viability at 20 µM [2, 12]: 22.4%
Luminescence Raw1 [3, 13]: 2962736
Luminescence Raw2 [3, 14]: 2763628
Luminescence Raw1 ([3]; DL1 cells, 0.2 µM, replicate 1): 2626203
Luminescence Raw2 ([3]; DL1 cells, 0.2 µM, replicate 2): 2499962
% viability, viability 2 ([3]; DL1 cells, 0.2 µM): 182.283%
Luminescence Raw1 ([3]; DL1 cells, 1 µM, replicate 1): 427059
% viability, viability 1 ([3]; DL1 cells, 1 µM): 31.1387%
Luminescence Raw2 ([3]; DL1 cells, 1 µM, replicate 2): 482949
% viability, viability 2 ([3]; DL1 cells, 1 µM): 35.2139%
Luminescence Raw1 ([3]; DL1 cells, 4 µM, replicate 1): 281027
% viability, viability 1 ([3]; DL1 cells, 4 µM): 20.4909%
Luminescence Raw2 ([3]; DL1 cells, 4 µM, replicate 2): 305186
% viability, viability 2 ([3]; DL1 cells, 4 µM): 22.2524%
Luminescence Raw1 ([3]; DL1 cells, 10 µM, replicate 1): 281749
Luminescence Raw2 ([3]; DL1 cells, 10 µM, replicate 2): 304825
Luminescence Raw1 ([3]; DL1 cells, 20 µM, replicate 1): 307710
Luminescence Raw2 ([3]; DL1 cells, 20 µM, replicate 2): 306988
IC50 ([3]; DL1 cells, cytotoxicity, average±SEM): 0.4 ± 0.02 µM
IC50 ([3]; read-out: IC50 (1), DL1 cells, cytotoxicity, replicate 1): 0.38 µM
IC50 ([3]; read-out: IC50 (2), DL1 cells, cytotoxicity, replicate 2): 0.415 µM
IC50 ([3]; read-out: IC50 Average, DL1 cells, cytotoxicity, average of two replicates): 0.397 µM
EC50 ([4]; MAGI assay, read-out: EC50): < 0.2 µM
EC50 ([4]; single determinations, read-out: Efficacy (EC50)): > 10 µM
effect on other viruses [5]: without affecting other viruses
GI50 [6]: 36.7 µM
GI50 [7]: 13.6 µM
GI50 [8]: 0.308 µM
GI50 [9]: 3.7 µM

C=C1CC[C@@H]2[C@](C)(CC[C@H]3O[C@H](C=C(C)C)C[C@@]23C)[C@@H]1Cc1c(OC)oc(CO)c(C(=O)OC)c1=O [Compound 21]
viability at 0.04 µM [2, 15]: 5.78%
viability at 0.04 µM [2, 16]: 8.79%
viability at 0.2 µM [2, 15]: 4.01%
viability at 0.2 µM [2, 16]: 4.17%
viability at 1 µM [2, 15]: 3.52%
viability at 1 µM [2, 16]: 2.4%
viability at 4 µM [2, 15]: 3.47%
viability at 4 µM [2, 16]: 3.41%
viability at 10 µM [2, 15]: 3.5%
viability at 10 µM [2, 16]: 3.92%
viability at 20 µM [2, 15]: 2.31%
viability at 20 µM [2, 16]: 3.01%
Luminescence Raw1 [3, 13]: 237970
Luminescence Raw2 [3, 14]: 362006
Luminescence Raw1 ([3]; DL1 cells, 0.2 µM, replicate 1): 165136
Luminescence Raw2 ([3]; DL1 cells, 0.2 µM, replicate 2): 171986
Luminescence Raw1 ([3]; DL1 cells, 1 µM, replicate 1): 144944
Luminescence Raw2 ([3]; DL1 cells, 1 µM, replicate 2): 98793
Luminescence Raw1 ([3]; DL1 cells, 4 µM, replicate 1): 143141
Luminescence Raw2 ([3]; DL1 cells, 4 µM, replicate 2): 140618
Luminescence Raw1 ([3]; DL1 cells, 10 µM, replicate 1): 144223
Luminescence Raw2 ([3]; DL1 cells, 10 µM, replicate 2): 161530
Luminescence Raw1 ([3]; DL1 cells, 20 µM, replicate 1): 95187
Luminescence Raw2 ([3]; DL1 cells, 20 µM, replicate 2): 124032
IC50 ([3]; Drosophila melanogaster, DL1 cells, cytotoxicity, average of two replicates, read-out: IC50 Average): < 0.04 µM
IC50 ([3]; Drosophila melanogaster, DL1 cells, cytotoxicity, replicate 1, read-out: IC50 (1)): < 0.04 µM
IC50 ([3]; Drosophila melanogaster, DL1 cells, cytotoxicity, replicate 2, read-out: IC50 (2)): < 0.04 µM
IC50 ([3]; Drosophila melanogaster, DL-1 cell line, cell growth, read-out: IC50): < 0.04 µM
GI50 [6]: 18.2 µM
GI50 [7]: 17.4 µM
GI50 [8]: 14.3 µM
GI50 [9]: 16.8 µM
GI50 [10]: 18.4 µM
